From patent publication US9670173B2, “Dicarboxylic acid compound” (DAIICHI SANKYO COMPANY, LIMITED, priority 2013, dated 2017)

The compounds below were run on male SD rats (assay: Rat 33P phosphate oral challenge test (intestinal phosphate absorption suppression test)). Details: fasted, 30 mg/kg forcible oral administration, 33P phosphate solution given 30 min later, serum radioactivity AUC0-60min versus control group.
Assay type: in vivo
Description: (Test Example) Rat ^33P Phosphate Oral Challenge Test (Intestinal Phosphate Absorption Suppression Test)
Using male SD rats (5-7 week old) that had been fasted on the previous day, the compound described in Examples was suspended or dissolved in a solvent such as 0.5% methyl cellulose (3-6 mg/mL), and the thus obtained solution was administered to each rat at a dose of 30 mg/kg by a forcible oral administration. On the other hand, regarding a control group, the solvent was administered to each rat at a dose of 5 mL/kg. Thirty minutes after the administration, a ^33P phosphate solution (8.3 mM NaH2PO4, 0.35 MBq/mL) was administered to the rats at a dose of 7.2 mL/kg by a forcible oral administration. Then, 15, 30, 60, and 120 minutes after the administration, blood was collected from the jugular vein of each rat under anesthesia with isoflurane. The radioactivity in 50 μL of serum was measured using a liquid scintillation counter, and the AUC0-60min was then calculated from the radioactivity value. The obtained value was defined as an amount of phosphate absorbed. The phosphate absorption-inhibiting activity of the compound was calculated according to the following expression. Phosphate absorption-inhibiting activity (%)=[[…]the amount of phosphate absorbed of the control group]×100

Which “Phosphorus absorption-inhibiting activity (%)” value does the source give for `CCN(CC)c1ccc(NC(=O)c2cccc(S(=O)(=O)N(CC)[C@H]3CC[C@H](C(=O)O)CC3)c2)c(C(=O)Nc2ccc(CCc3ccc(C(=O)O)cc3)cc2)c1` [Example 14, Dipotassium 4-[2-(4-{[2-({3-[(trans-4-carboxylatocyclohexyl)(ethyl)sulfamoyl]benzoyl}amino)-5-(diethylamino)benzoyl]amino}phenyl)ethyl]benzoate] here?
The value was 76%.

For `CCN([C@H]1CC[C@H](C(=O)O)CC1)S(=O)(=O)c1cccc(C(=O)Nc2ccc(N3CCCCC3)cc2C(=O)Nc2ccc(CCc3ccc(C(=O)O)cc3)cc2)c1` [Example 12, Dipotassium 4-[2-(4-{[2-({3-[(trans-4-carboxylatocyclohexyl)(ethyl)sulfamoyl]benzoyl}amino)-5-(piperidin-1-yl)benzoyl]amino}phenyl)ethyl]benzoate], which “Phosphorus absorption-inhibiting activity (%)” value is on record?
The value was 79%.

For `CCN(CC)c1ccc(NC(=O)c2cccc(S(=O)(=O)N(CC)[C@H]3CC[C@H](C(=O)[O-])CC3)c2)c(C(=O)Nc2ccc(CCc3ccc(C(=O)[O-])cc3)cc2)c1.[Na+].[Na+]` [Example 29, Disodium 4-[2-(4-{[2-({3-[(trans-4-carboxylatocyclohexyl)(ethyl)sulfamoyl]benzoyl}amino)-5-(diethylamino)benzoyl]amino}phenyl)ethyl]benzoate], which “Phosphorus absorption-inhibiting activity (%)” value is on record?
The value was 72%.

For `CCN([C@H]1CC[C@H](C(=O)[O-])CC1)S(=O)(=O)c1cccc(C(=O)Nc2ccc(OCC3CC3)cc2C(=O)Nc2ccc(CCc3ccc(C(=O)[O-])cc3)cc2)c1.[K+].[K+]` [Example 15, Dipotassium 4-[2-(4-{[2-({3-[(trans-4-carboxylatocyclohexyl)(ethyl)sulfamoyl]benzoyl}amino)-5-(cyclopropylmethoxy)benzoyl]amino}phenyl)ethyl]benzoate], which “Phosphorus absorption-inhibiting activity (%)” value is on record?
Its value is 82%.

With `O=C([O-])c1ccc(CCc2ccc(NC(=O)c3cc(N4CCCCC4)ccc3NC(=O)c3cccc(S(=O)(=O)N(C4CC4)[C@H]4CC[C@H](C(=O)[O-])CC4)c3)cc2)cc1.[K+].[K+]` [Example 27, Dipotassium 4-[2-(4-{[2-({3-[(trans-4-carboxylatocyclohexyl)(cyclopropyl)sulfamoyl]benzoyl}amino)-5-(piperidin-1-yl)benzoyl]amino}phenyl)ethyl]benzoate] as the compound, how does the “Phosphorus absorption-inhibiting activity (%)” value read?
Its value is 57%.

For `CCN([C@H]1CC[C@H](C(=O)O)CC1)S(=O)(=O)c1cccc(C(=O)Nc2ccc(Br)cc2C(=O)Nc2ccc(CCc3ccc(C(=O)O)cc3)cc2)c1` [Example 4, Dipotassium 4-[2-(4-{[5-bromo-2-({3-[(trans-4-carboxylatocyclohexyl)(ethyl)sulfamoyl]benzoyl}amino)benzoyl]amino}phenyl)ethyl]benzoate], which “Phosphorus absorption-inhibiting activity (%)” value is on record?
Its value is 42%.

With `CCN([C@H]1CC[C@@H](C(=O)O)CC1)S(=O)(=O)c1cccc(C(=O)Nc2ccc(N3CCCCC3)cc2C(=O)Nc2ccc(CCc3ccc(C(=O)O)cc3)cc2)c1` [Example 26, Dipotassium 4-[2-(4-{[2-({3-[(cis-4-carboxylatocyclohexyl)(ethyl)sulfamoyl]benzoyl}amino)-5-(piperidin-1-yl)benzoyl]amino}phenyl)ethyl]benzoate] as the compound, how does the “Phosphorus absorption-inhibiting activity (%)” value read?
The value was 60%.

How did the “Phosphorus absorption-inhibiting activity (%)” value turn out when `CCN([C@H]1CC[C@H](C(=O)[O-])CC1)S(=O)(=O)c1cccc(C(=O)Nc2ccc(N3CCCC3)cc2C(=O)Nc2ccc(CCc3ccc(C(=O)[O-])cc3)cc2)c1.[K+].[K+]` [Example 10, Dipotassium 4-[2-(4-{[2-({3-[(trans-4-carboxylatocyclohexyl)(ethyl)sulfamoyl]benzoyl}amino)-5-(pyrrolidin-1-yl)benzoyl]amino}phenyl)ethyl]benzoate] was run?
The value was 53%.

Which “Phosphorus absorption-inhibiting activity (%)” value does the source give for `CCN([C@H]1CC[C@H](C(=O)O)CC1)S(=O)(=O)c1cccc(C(=O)Nc2ccc(OCC3CC3)cc2C(=O)Nc2ccc(CCc3ccc(C(=O)O)cc3)cc2)c1` [Example 30, Disodium 4-[2-(4-{[2-({3-[(trans-4-carboxylatocyclohexyl)(ethyl)sulfamoyl]benzoyl}amino)-5-(cyclopropylmethoxy)benzoyl]amino}phenyl)ethyl]benzoate] here?
The value was 69%.

Which “Phosphorus absorption-inhibiting activity (%)” value does the source give for `CCN([C@H]1CC[C@H](C(=O)[O-])CC1)S(=O)(=O)c1cccc(C(=O)Nc2ccc(N3CCCCC3)cc2C(=O)Nc2ccc(CCc3ccc(C(=O)[O-])cc3)cc2)c1.[Na+].[Na+]` [Example 28, Disodium 4-[2-(4-{[2-({3-[(trans-4-carboxylatocyclohexyl)(ethyl)sulfamoyl]benzoyl}amino)-5-(piperidin-1-yl)benzoyl]amino}phenyl)ethyl]benzoate] here?
Its value is 60%.
